Data as given in PubChem BioAssay AID2060893 (Molecular Pharmacology Branch, DTP, NCI, 2025).

Test system: K86415-001-R-J1-PDC complex spheroids, viability
Experiment: Anticancer human tumor K86415-001-R-J1-PDC patient-derived lung adenocarcinoma cell line growth inhibition [RAS]
Settings: for viability, T/C: stronger effect = lower value
Summary of the method: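 Tumour cells grown as complex spheroids with HUVEC endothelial cells and mesenchymal stem cells, treated with RAS pathway inhibitor combinations. Each agent spans half-log steps from near clinical Cmax, or 10 microM where Cmax is unknown.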

[1] = curve of first compound, second compound 0.000949 µM
[2] = curve of first compound, second compound 0.003 µM
[3] = curve of first compound, second compound 0.00949 µM
[4] = curve of first compound, second compound 0.03 µM
[5] = curve of first compound, second compound 0.0949 µM
[6] = curve of first compound, second compound 0.3 µM
[7] = second compound 0.000949 µM, first compound 0.0316 µM
[8] = second compound 0.000949 µM, first compound 0.1 µM
[9] = second compound 0.000949 µM, first compound 0.316 µM
[10] = second compound 0.000949 µM, first compound 1 µM
[11] = second compound 0.000949 µM, first compound 3.16 µM
[12] = second compound 0.000949 µM, first compound 10 µM
[13] = second compound 0.003 µM, first compound 0.0316 µM
[14] = second compound 0.003 µM, first compound 0.1 µM
[15] = second compound 0.003 µM, first compound 0.316 µM
[16] = second compound 0.003 µM, first compound 1 µM
[17] = second compound 0.003 µM, first compound 3.16 µM
[18] = second compound 0.003 µM, first compound 10 µM
[19] = second compound 0.00949 µM, first compound 0.0316 µM
[20] = second compound 0.00949 µM, first compound 0.1 µM
[21] = second compound 0.00949 µM, first compound 0.316 µM
[22] = second compound 0.00949 µM, first compound 1 µM
[23] = second compound 0.00949 µM, first compound 3.16 µM
[24] = second compound 0.00949 µM, first compound 10 µM
[25] = second compound 0.03 µM, first compound 0.0316 µM
[26] = second compound 0.03 µM, first compound 0.1 µM
[27] = second compound 0.03 µM, first compound 0.316 µM
[28] = second compound 0.03 µM, first compound 1 µM
[29] = second compound 0.03 µM, first compound 3.16 µM
[30] = second compound 0.03 µM, first compound 10 µM
[31] = second compound 0.0949 µM, first compound 0.0316 µM
[32] = second compound 0.0949 µM, first compound 0.1 µM
[33] = second compound 0.0949 µM, first compound 0.316 µM
[34] = second compound 0.0949 µM, first compound 1 µM
[35] = second compound 0.0949 µM, first compound 3.16 µM
[36] = second compound 0.0949 µM, first compound 10 µM
[37] = second compound 0.3 µM, first compound 0.0316 µM
[38] = second compound 0.3 µM, first compound 0.1 µM
[39] = second compound 0.3 µM, first compound 0.316 µM
[40] = second compound 0.3 µM, first compound 1 µM
[41] = second compound 0.3 µM, first compound 3.16 µM
[42] = second compound 0.3 µM, first compound 10 µM
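Further: spheroids exposed to agents for seven days before readout.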

Question: Which IC50 [1] does the source give for `C[C@@H](NC(=O)c1ncnc(N)c1Cl)c1ncc(C(=O)Nc2cc(C(F)(F)F)c(Cl)cn2)s1` + CCn1c(-c2cccnc2C(C)OC)c2c3cc(ccc31)N1CCOC(CC(NC(=O)C(C(C)C)N(C)C(=O)C3(F)CCN(C(=O)C#CC(C)(C)N(C)C)CC3)C(=O)N3CCCC(N3)C(=O)OCC(C)(C)C2)C1 here?
Answer: Its IC50 is less than 31.6 nM.

Question: What about the IC50 [2] of the same compound?
Answer: The IC50 was less than 31.6 nM.

Question: And the IC50 [3]?
Answer: Its IC50 is less than 31.6 nM.

Question: What about the IC50 [4] of the same compound?
Answer: Its IC50 is less than 31.6 nM.

Question: What about the IC50 [5] of the same compound?
Answer: Its IC50 is less than 31.6 nM.

Question: And the IC50 [6]?
Answer: Its IC50 is less than 31.6 nM.

Question: And the viability, T/C [7]?
Answer: The viability, T/C was 44.6%.

Question: What about the viability, T/C [8] of the same compound?
Answer: The viability, T/C was 55.7%.

Question: What about the viability, T/C [9] of the same compound?
Answer: Its viability, T/C is 35.6%.

Question: And the viability, T/C [10]?
Answer: Its viability, T/C is 56.4%.

Question: And the viability, T/C [11]?
Answer: Its viability, T/C is 45.2%.

Question: What about the viability, T/C [12] of the same compound?
Answer: The viability, T/C was 21.5%.

Question: And the viability, T/C [13]?
Answer: Its viability, T/C is 18.7%.

Question: What about the viability, T/C [14] of the same compound?
Answer: Its viability, T/C is 15.2%.

Question: And the viability, T/C [15]?
Answer: Its viability, T/C is 16.7%.

Question: What about the viability, T/C [16] of the same compound?
Answer: The viability, T/C was 16.3%.

Question: And the viability, T/C [17]?
Answer: The viability, T/C was 16.3%.

Question: And the viability, T/C [18]?
Answer: Its viability, T/C is 12.6%.

Question: What about the viability, T/C [19] of the same compound?
Answer: The viability, T/C was 14.2%.

Question: What about the viability, T/C [20] of the same compound?
Answer: Its viability, T/C is 14%.

Question: And the viability, T/C [21]?
Answer: Its viability, T/C is 13.8%.

Question: And the viability, T/C [22]?
Answer: Its viability, T/C is 14.1%.

Question: What about the viability, T/C [23] of the same compound?
Answer: Its viability, T/C is 12.6%.

Question: And the viability, T/C [24]?
Answer: The viability, T/C was 13.3%.

Question: What about the viability, T/C [25] of the same compound?
Answer: Its viability, T/C is 14.6%.

Question: What about the viability, T/C [26] of the same compound?
Answer: The viability, T/C was 14.2%.

Question: What about the viability, T/C [27] of the same compound?
Answer: The viability, T/C was 17%.

Question: And the viability, T/C [28]?
Answer: Its viability, T/C is 16.4%.

Question: What about the viability, T/C [29] of the same compound?
Answer: The viability, T/C was 13.6%.

Question: What about the viability, T/C [30] of the same compound?
Answer: The viability, T/C was 12.3%.

Question: What about the viability, T/C [31] of the same compound?
Answer: The viability, T/C was 12.1%.

Question: What about the viability, T/C [32] of the same compound?
Answer: The viability, T/C was 14.3%.

Question: And the viability, T/C [33]?
Answer: Its viability, T/C is 12.7%.

Question: And the viability, T/C [34]?
Answer: The viability, T/C was 14.5%.

Question: And the viability, T/C [35]?
Answer: Its viability, T/C is 13.6%.

Question: What about the viability, T/C [36] of the same compound?
Answer: The viability, T/C was 13.8%.

Question: And the viability, T/C [37]?
Answer: The viability, T/C was 12%.

Question: And the viability, T/C [38]?
Answer: Its viability, T/C is 13.5%.

Question: What about the viability, T/C [39] of the same compound?
Answer: Its viability, T/C is 14.9%.

Question: And the viability, T/C [40]?
Answer: The viability, T/C was 15.3%.

Question: And the viability, T/C [41]?
Answer: The viability, T/C was 13.8%.

Question: And the viability, T/C [42]?
Answer: Its viability, T/C is 13.1%.

Question: Which results are given for `CC(=O)OC12COC1CC(O)C1(C)C(=O)C(O)C3=C(C)C(OC(=O)C(O)C(NC(=O)OC(C)(C)C)c4ccccc4)CC(O)(C(OC(=O)c4ccccc4)C21)C3(C)C` (stereo unspecified)?
Answer: viability, T/C (compound 0.0316 µM): 32.8% [middle of 4 runs]; viability, T/C (compound 0.1 µM): 30.1% [middle of 4 runs]; viability, T/C (compound 0.316 µM): 31% [middle of 4 runs]; viability, T/C (compound 1 µM): 34.2% [middle of 4 runs]; viability, T/C (compound 3.16 µM): 36.2% [middle of 4 runs]; viability, T/C (compound 10 µM): 32.1% [middle of 4 runs]; IC50 (curve of compound): < 31.6 nM

Question: `CC1(O)CCCC1n1c(=O)c(C(F)F)cc2cnc(NC3CCN(S(C)(=O)=O)CC3)nc21` (stereo unspecified) + CCn1c(-c2cc(N3CCN(C)CC3)cnc2C(C)OC)c2c3cc(ccc31)-c1csc(n1)CC(NC(=O)C1CC1C)C(=O)N1CCCC(N1)C(=O)OCC(C)(C)C2 was tested. Which IC50 [1] did it give?
Answer: Its IC50 is 31.6 nM.

Question: And the IC50 [2]?
Answer: Its IC50 is less than 31.6 nM.

Question: And the IC50 [3]?
Answer: The IC50 was less than 31.6 nM.

Question: What about the IC50 [4] of the same compound?
Answer: Its IC50 is less than 31.6 nM.

Question: And the IC50 [5]?
Answer: The IC50 was less than 31.6 nM.

Question: What about the IC50 [6] of the same compound?
Answer: The IC50 was less than 31.6 nM.

Question: And the viability, T/C [7]?
Answer: The viability, T/C was 41.9%.

Question: And the viability, T/C [8]?
Answer: The viability, T/C was 36.9%.

Question: And the viability, T/C [9]?
Answer: Its viability, T/C is 36.7%.

Question: And the viability, T/C [10]?
Answer: Its viability, T/C is 47%.

Question: What about the viability, T/C [11] of the same compound?
Answer: Its viability, T/C is 57.5%.

Question: And the viability, T/C [12]?
Answer: The viability, T/C was 4.99%.

Question: What about the viability, T/C [13] of the same compound?
Answer: Its viability, T/C is 18.4%.

Question: What about the viability, T/C [14] of the same compound?
Answer: The viability, T/C was 19.2%.

Question: And the viability, T/C [15]?
Answer: The viability, T/C was 20%.

Question: And the viability, T/C [16]?
Answer: Its viability, T/C is 23.5%.

Question: What about the viability, T/C [17] of the same compound?
Answer: Its viability, T/C is 43%.

Question: What about the viability, T/C [18] of the same compound?
Answer: Its viability, T/C is 4.43%.

Question: What about the viability, T/C [19] of the same compound?
Answer: The viability, T/C was 10.9%.

Question: What about the viability, T/C [20] of the same compound?
Answer: Its viability, T/C is 8.83%.

Question: What about the viability, T/C [21] of the same compound?
Answer: Its viability, T/C is 10.7%.

Question: And the viability, T/C [22]?
Answer: The viability, T/C was 11.5%.

Question: And the viability, T/C [23]?
Answer: The viability, T/C was 20.2%.

Question: And the viability, T/C [24]?
Answer: The viability, T/C was 5.31%.

Question: What about the viability, T/C [25] of the same compound?
Answer: Its viability, T/C is 6.62%.

Question: And the viability, T/C [26]?
Answer: The viability, T/C was 6.19%.

Question: And the viability, T/C [27]?
Answer: The viability, T/C was 6.48%.

Question: And the viability, T/C [28]?
Answer: The viability, T/C was 10.7%.

Question: And the viability, T/C [29]?
Answer: The viability, T/C was 12.3%.

Question: And the viability, T/C [30]?
Answer: The viability, T/C was 4.06%.

Question: What about the viability, T/C [31] of the same compound?
Answer: Its viability, T/C is 4.05%.

Question: And the viability, T/C [32]?
Answer: The viability, T/C was 4.63%.

Question: What about the viability, T/C [33] of the same compound?
Answer: The viability, T/C was 4.78%.

Question: What about the viability, T/C [34] of the same compound?
Answer: Its viability, T/C is 5.15%.

Question: What about the viability, T/C [35] of the same compound?
Answer: The viability, T/C was 6.85%.

Question: What about the viability, T/C [36] of the same compound?
Answer: Its viability, T/C is 5.2%.

Question: What about the viability, T/C [37] of the same compound?
Answer: The viability, T/C was 3.61%.

Question: And the viability, T/C [38]?
Answer: Its viability, T/C is 5.05%.

Question: And the viability, T/C [39]?
Answer: The viability, T/C was 4.72%.

Question: What about the viability, T/C [40] of the same compound?
Answer: Its viability, T/C is 5.49%.

Question: And the viability, T/C [41]?
Answer: Its viability, T/C is 7.45%.

Question: What about the viability, T/C [42] of the same compound?
Answer: The viability, T/C was 4.66%.
